Experimental data published in US5358951A, “Angiotensin II receptor blocking 2, 3, 6 substituted quinazolinones” (American Cyanamid Company, priority 1993, dated 1994).

System: vasopressor response of angiotensin II
Assay: AII Challenge: antagonism of angiotensin II vasopressor response;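 for Response Average Change: post-dose Angiotensin II-evoked rise in systolic blood pressure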
Assay type: in vivo
Conditions: for inhibition in vivo at 1 mg/kg / inhibition in vivo at 3 mg/kg: Rattus norvegicus; for inhibition in vivo at 1 mg/kg: iv; for inhibition in vivo at 3 mg/kg: po
Outline: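 Conscious male SHR (16-20 weeks) with aortic and caval cannulae received angiotensin II at 0.05 and 0.1 ug/kg i.v. before and 30-300 min after compound dosing (i.v., i.p. or oral). Blockade is expressed as % of each rat's predose rise in systolic pressure.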

CCCCc1nc2ccc(C3(C(=O)OC)CC4CCCN4O3)cc2c(=O)n1Cc1ccc(-c2ccccc2-c2nnn[nH]2)cc1 (mixture of isomers) [Example 78, Trans(+/-)-Methyl-2-[2-butyl-3,4-dihydro-4-oxo-3-[[2'-(1H-tetrazol-5-yl)[1,1'-biphenyl]-4-yl]methyl-6-quinazolinyl]hexahydropyrrolo[1,2-b]isoxazole-2-carboxylate]
Response Average Change (1 mg/kg i.v., AII 0.05 mcg/kg IV, 30 min post dose): 5 mmHg
Response Average Change (1 mg/kg i.v., AII 0.05 mcg/kg IV, 60 min post dose): 12.5 mmHg
Response Average Change (1 mg/kg i.v., AII 0.05 mcg/kg IV, 90 min post dose): 7.5 mmHg
Response Average Change (1 mg/kg i.v., AII 0.05 mcg/kg IV, 120 min post dose): 10 mmHg
Response Average Change (1 mg/kg i.v., AII 0.05 mcg/kg IV, 180 min post dose): 11 mmHg
Response Average Change (1 mg/kg i.v., AII 0.05 mcg/kg IV, 240 min post dose): 12.5 mmHg
Response Average Change (1 mg/kg i.v., AII 0.05 mcg/kg IV, 300 min post dose): 5 mmHg
Response Average Change (1 mg/kg i.v., AII 0.1 mcg/kg IV, 30 min post dose): 15 mmHg
Response Average Change (1 mg/kg i.v., AII 0.1 mcg/kg IV, 60 min post dose): 12.5 mmHg
Response Average Change (1 mg/kg i.v., AII 0.1 mcg/kg IV, 90 min post dose): 15 mmHg
Response Average Change (1 mg/kg i.v., AII 0.1 mcg/kg IV, 120 min post dose): 17.5 mmHg
Response Average Change (1 mg/kg i.v., AII 0.1 mcg/kg IV, 180 min post dose): 12.5 mmHg
Response Average Change (1 mg/kg i.v., AII 0.1 mcg/kg IV, 240 min post dose): 12.5 mmHg
Response Average Change (1 mg/kg i.v., AII 0.1 mcg/kg IV, 300 min post dose): 17.5 mmHg
Response Average Change (3 mg/kg P.O., AII 0.05 mcg/kg IV, 30 min post dose): 27.5 mmHg
Response Average Change (3 mg/kg P.O., AII 0.05 mcg/kg IV, 60 min post dose): 22.5 mmHg
Response Average Change (3 mg/kg P.O., AII 0.05 mcg/kg IV, 90 min post dose): 22.5 mmHg
Response Average Change (3 mg/kg P.O., AII 0.05 mcg/kg IV, 120 min post dose): 17.5 mmHg
Response Average Change (3 mg/kg P.O., AII 0.05 mcg/kg IV, 180 min post dose): 19 mmHg
Response Average Change (3 mg/kg P.O., AII 0.05 mcg/kg IV, 240 min post dose): 19 mmHg
Response Average Change (3 mg/kg P.O., AII 0.05 mcg/kg IV, 300 min post dose): 27.5 mmHg
Response Average Change (3 mg/kg P.O., AII 0.1 mcg/kg IV, 30 min post dose): 35 mmHg
Response Average Change (3 mg/kg P.O., AII 0.1 mcg/kg IV, 60 min post dose): 25 mmHg
Response Average Change (3 mg/kg P.O., AII 0.1 mcg/kg IV, 90 min post dose): 17.5 mmHg
Response Average Change (3 mg/kg P.O., AII 0.1 mcg/kg IV, 120 min post dose): 15 mmHg
Response Average Change (3 mg/kg P.O., AII 0.1 mcg/kg IV, 180 min post dose): 17.5 mmHg
Response Average Change (3 mg/kg P.O., AII 0.1 mcg/kg IV, 240 min post dose): 17.5 mmHg
Response Average Change (3 mg/kg P.O., AII 0.1 mcg/kg IV, 300 min post dose): 25 mmHg
inhibition in vivo at 1 mg/kg (0.5 h, 1 mg/kg i.v., AII 0.05 mcg/kg IV, 30 min post dose): 80%
inhibition in vivo at 1 mg/kg (0.5 h, 1 mg/kg i.v., AII 0.1 mcg/kg IV, 30 min post dose): 45%
inhibition in vivo at 1 mg/kg (1 h, 1 mg/kg i.v., AII 0.05 mcg/kg IV, 60 min post dose): 50%
inhibition in vivo at 1 mg/kg (1 h, 1 mg/kg i.v., AII 0.1 mcg/kg IV, 60 min post dose): 55%
inhibition in vivo at 1 mg/kg (2 h, 1 mg/kg i.v., AII 0.05 mcg/kg IV, 120 min post dose): 60%
inhibition in vivo at 1 mg/kg (2 h, 1 mg/kg i.v., AII 0.1 mcg/kg IV, 120 min post dose): 36%
inhibition in vivo at 1 mg/kg (3 h, 1 mg/kg i.v., AII 0.05 mcg/kg IV, 180 min post dose): 56%
inhibition in vivo at 1 mg/kg (3 h, 1 mg/kg i.v., AII 0.1 mcg/kg IV, 180 min post dose): 55%
inhibition in vivo at 1 mg/kg (4 h, 1 mg/kg i.v., AII 0.05 mcg/kg IV, 240 min post dose): 50%
inhibition in vivo at 1 mg/kg (4 h, 1 mg/kg i.v., AII 0.1 mcg/kg IV, 240 min post dose): 55%
inhibition in vivo at 1 mg/kg (5 h, 1 mg/kg i.v., AII 0.05 mcg/kg IV, 300 min post dose): 80%
inhibition in vivo at 1 mg/kg (5 h, 1 mg/kg i.v., AII 0.1 mcg/kg IV, 300 min post dose): 36%
inhibition in vivo at 1 mg/kg ([…], 1 mg/kg i.v., AII 0.05 mcg/kg IV, 90 min post dose): 70%
inhibition in vivo at 1 mg/kg ([…], 1 mg/kg i.v., AII 0.1 mcg/kg IV, 90 min post dose): 45%
inhibition in vivo at 3 mg/kg (0.5 h, 3 mg/kg P.O., AII 0.05 mcg/kg IV, 30 min post dose): 0%
inhibition in vivo at 3 mg/kg (0.5 h, 3 mg/kg P.O., AII 0.1 mcg/kg IV, 30 min post dose): -17%
inhibition in vivo at 3 mg/kg (1 h, 3 mg/kg P.O., AII 0.05 mcg/kg IV, 60 min post dose): 18%
inhibition in vivo at 3 mg/kg (1 h, 3 mg/kg P.O., AII 0.1 mcg/kg IV, 60 min post dose): 17%
inhibition in vivo at 3 mg/kg (2 h, 3 mg/kg P.O., AII 0.05 mcg/kg IV, 120 min post dose): 36%
inhibition in vivo at 3 mg/kg (2 h, 3 mg/kg P.O., AII 0.1 mcg/kg IV, 120 min post dose): 50%
inhibition in vivo at 3 mg/kg (3 h, 3 mg/kg P.O., AII 0.05 mcg/kg IV, 180 min post dose): 31%
inhibition in vivo at 3 mg/kg (3 h, 3 mg/kg P.O., AII 0.1 mcg/kg IV, 180 min post dose): 42%
inhibition in vivo at 3 mg/kg (4 h, 3 mg/kg P.O., AII 0.05 mcg/kg IV, 240 min post dose): 31%
inhibition in vivo at 3 mg/kg (4 h, 3 mg/kg P.O., AII 0.1 mcg/kg IV, 240 min post dose): 42%
inhibition in vivo at 3 mg/kg (5 h, 3 mg/kg P.O., AII 0.05 mcg/kg IV, 300 min post dose): 0%
inhibition in vivo at 3 mg/kg (5 h, 3 mg/kg P.O., AII 0.1 mcg/kg IV, 300 min post dose): 17%
inhibition in vivo at 3 mg/kg ([…], 3 mg/kg P.O., AII 0.05 mcg/kg IV, 90 min post dose): 18%
inhibition in vivo at 3 mg/kg ([…], 3 mg/kg P.O., AII 0.1 mcg/kg IV, 90 min post dose): 42%
